Patent US10519114B2, “Peptidomimetics and methods of using the same” (The Regents of the University of Michigan, priority 2016, dated 2019)

How the values were obtained:
[1] = biological target: T1, rat μ (C6-MOR) opioid receptor (Rattus norvegicus, UniProt P33535); assay: Radioligand binding assay, [3H]diprenorphine displacement, MOR; settings: displacement of 0.2 nM [3H]diprenorphine, C6-MOR membranes; mean ± standard error
T1 construct: expressed in transfected cells
Protocol: (§1) In Vitro Pharmacology-Cell Lines and Membrane Preparations. All tissue culture reagents were purchased from Gibco Life Sciences (Grand Island, N.Y., U.S.). C6-rat glioma cells stably transfected with a rat μ (C6-MOR) or rat δ (C6-DOR) opioid receptor20 and Chinese hamster ovary (CHO) cells stably expressing a human K (CHO-KOR) opioid receptor21 were used for all in vitro assays. Cells were grown to confluence at 37° C. in 5% CO2 in Dulbecco's modified Eagle medium containing 10% fetal bovine serum and 5% penicillin/streptomycin. Membranes were prepared by washing confluent cells three times with ice cold phosphate buffered saline (0.9% NaCl, 0.61 mM Na2HPO4, 0.38 mM KH2PO4, pH 7.4). Cells were detached from the plates by incubation in warm harvesting buffer (20 mM HEPES, 150 mM NaCl, 0.68 mM EDTA, pH 7.4) and pelleted by centrifugation at 200 g for 3 min. The cell pellet was suspended in ice-cold 50 mM Tris-HCl buffer, pH 7.4, and homogenized with a Tissue Tearor (Biospec Products, Inc., Bartlesville, Okla., U.S.) for 20 s at setting 4. The homogenate was centrifuged at 20 000 g for 20 min at 4° C., and the pellet was rehomogenized in 50 mM Tris-HCl with a Tissue Tearor for 10 s at setting 2, followed by recentrifugation. The final pellet was resuspended in 50 mM Tris-HCl and frozen in aliquots at […]. Protein concentration was determined via Bradford assay using bovine serum albumin as the standard.
(§2) Radioligand Binding Assays. Radioactive compounds were purchased from Perkin-Elmer (Waltham, Mass., U.S.). Opioid ligand binding assays were performed using competitive displacement of 0.2 nM [3H]diprenorphine (250 μCi, 1.85 TBq/mmol) by the test compound from membrane preparations containing opioid receptors. The assay mixture, containing membrane suspension (20 μg protein/tube) in 50 mM Tris-HCl buffer (pH 7.4), [3H]diprenorphine, and various concentrations of test peptide, was incubated at room temperature for 1 h to allow binding to reach equilibrium. The samples were rapidly filtered through Whatman GF/C filters using a Brandel harvester (Brandel, Gaithersburg, Md., U.S.) and washed three times with 50 mM Tris-HCl buffer. The radioactivity retained on dried filters was determined by liquid scintillation counting after saturation with EcoLume liquid scintillation cocktail in a Wallac 1450 MicroBeta (Perkin-Elmer, Waltham, Mass., U.S.). Nonspecific binding was determined using 10 μM naloxone. Inhibitory constant (Ki) values were calculated using nonlinear regression analysis to fit a logistic equation to the competition data using GraphPad Prism, version 5.01, for Windows (GraphPad Software Inc., La Jolla, Calif.). The results presented are the mean±standard error from at least three separate assays performed in duplicate.

[2] = biological target: T2, human κ (CHO-KOR) opioid receptor (Homo sapiens, UniProt P41145); assay: Stimulation of [35S]GTPγS binding, KOR; type: biochemical
T2 construct: expressed in transfected cells
Protocol: as §1
(§3) Stimulation of [^35S]GTPyS Binding. Agonist stimulation of [35S]guanosine 5′-O-[γ-thio]triphosphate ([^35S]GTPγS, 1250 Ci, 46.2 TBq/mmol) binding was measured as described previously Briefly, membranes (10-20 μg of protein/tube) were incubated 1 h at room temperature in GTPyS buffer (50 mM Tris-HCl, 100 mM NaCl, 5 mM MgCl2, pH 7.4) containing 0.1 nM [^35S]GTPγS, 30 μM guanosine diphosphate (GDP), and varying concentrations of test peptides. Peptide stimulation of [^35S]GTPyS was compared with 10 μM standard compounds [D-Ala^2,N-MePhe^4,Gly-ol]encephalin (DAMGO) at MOR, D-Pen^2,5-enkephalin (DPDPE) at DOR, or […] at KOR. The reaction was terminated by rapidly filtering through GF/C filters and washing 10 times with GTPyS buffer, and retained radioactivity was measured as described above. The results presented are the mean±standard error from at least three separate assays performed in duplicate; maximal stimulation was determined using nonlinear regression analysis with GraphPad Prism (GraphPad Software Inc., La Jolla, Calif.).

[3] = biological target: T3, rat δ (C6-DOR) opioid receptor (Rattus norvegicus, UniProt P33533); assay: Stimulation of [35S]GTPγS binding, DOR; type: biochemical; settings: for EC50 / EC50 (nm) DOR: [35S]GTPγS binding, C6-DOR membranes, mean ± standard error; for Emax / % stimulation DOR: [35S]GTPγS maximal stimulation compared with 10 μM standard DPDPE
T3 construct: expressed in transfected cells
Protocol: as §1, §3

[4] = biological target: T2, human κ (CHO-KOR) opioid receptor; assay: Radioligand binding assay, [3H]diprenorphine displacement, KOR; settings: displacement of 0.2 nM [3H]diprenorphine, CHO-KOR membranes; mean ± standard error
Protocol: as §1, §2

[5] = biological target: T3, rat δ (C6-DOR) opioid receptor; assay: Radioligand binding assay, [3H]diprenorphine displacement, DOR; settings: displacement of 0.2 nM [3H]diprenorphine, C6-DOR membranes; mean ± standard error
Protocol: as §1, §2

[6] = biological target: T1, rat μ (C6-MOR) opioid receptor; assay: Stimulation of [35S]GTPγS binding, MOR; type: biochemical; settings: for EC50: [35S]GTPγS binding, C6-MOR membranes, mean ± standard error; for Emax: [35S]GTPγS maximal stimulation compared with 10 μM standard DAMGO
Protocol: as §1, §3

[7] = [35S]GTPγS binding, CHO-KOR membranes, mean ± standard error
[8] = [35S]GTPγS maximal stimulation compared with 10 μM standard U-69,593

T1 sequence (P33535 whole entry): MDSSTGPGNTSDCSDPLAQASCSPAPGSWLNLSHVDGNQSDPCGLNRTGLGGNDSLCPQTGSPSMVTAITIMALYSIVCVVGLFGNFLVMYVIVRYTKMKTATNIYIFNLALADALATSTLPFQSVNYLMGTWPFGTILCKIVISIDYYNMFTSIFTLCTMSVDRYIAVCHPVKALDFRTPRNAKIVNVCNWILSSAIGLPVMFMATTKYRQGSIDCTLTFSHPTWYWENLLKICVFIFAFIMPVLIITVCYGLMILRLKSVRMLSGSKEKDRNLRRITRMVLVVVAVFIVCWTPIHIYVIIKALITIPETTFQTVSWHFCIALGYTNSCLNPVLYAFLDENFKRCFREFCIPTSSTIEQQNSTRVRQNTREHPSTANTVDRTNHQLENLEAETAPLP
T3 sequence (P33533 whole entry): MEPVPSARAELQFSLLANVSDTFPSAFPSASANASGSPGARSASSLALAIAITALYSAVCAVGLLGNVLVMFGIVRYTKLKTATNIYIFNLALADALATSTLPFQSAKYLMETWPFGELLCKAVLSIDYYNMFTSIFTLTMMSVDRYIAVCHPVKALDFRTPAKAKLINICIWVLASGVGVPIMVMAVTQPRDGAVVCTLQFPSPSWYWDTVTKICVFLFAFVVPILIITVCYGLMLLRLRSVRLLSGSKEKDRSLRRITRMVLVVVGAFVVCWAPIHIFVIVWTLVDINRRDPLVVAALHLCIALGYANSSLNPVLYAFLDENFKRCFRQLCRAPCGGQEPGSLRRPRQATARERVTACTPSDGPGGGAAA
T2 sequence (P41145 whole entry): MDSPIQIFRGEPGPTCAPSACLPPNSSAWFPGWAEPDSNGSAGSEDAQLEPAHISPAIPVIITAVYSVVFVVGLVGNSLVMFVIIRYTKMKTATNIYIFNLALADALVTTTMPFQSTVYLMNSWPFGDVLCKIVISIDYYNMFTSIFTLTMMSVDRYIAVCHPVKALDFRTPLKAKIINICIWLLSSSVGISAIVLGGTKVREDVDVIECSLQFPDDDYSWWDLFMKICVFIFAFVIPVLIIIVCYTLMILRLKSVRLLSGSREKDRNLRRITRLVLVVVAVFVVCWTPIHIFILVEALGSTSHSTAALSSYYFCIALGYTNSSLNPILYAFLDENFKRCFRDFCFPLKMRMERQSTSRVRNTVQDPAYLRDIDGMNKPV

Structure (SMILES)	Ki [1]	EC50 [2, 7]	Emax [2, 8]	EC50 [3]	Emax [3]	Ki [4]	Ki [5]	EC50 [6]	Emax [6]	EC50 (nm) DOR [3]	% stimulation DOR [3]	EC50 (nm) KOR [2, 7]	% stimulation KOR [2, 8]
Cc1cc(O)cc(C)c1C[C@H](N)C(=O)N(C)[C@@H]1CCNc2ccc(Cc3ccccc3)cc21 [Compound 1001]	0.9 ± 0.3 nM	488 ± 142 nM	3.9 ± 0.9%	410 ± 138 nM	12.6 ± 5.5%	116 ± 30 nM	15.7 ± 3.7 nM	3 ± 0.31 nM	80.6 ± 4.7%				
Cc1cc(O)cc(C)c1C[C@H](N)C(=O)N(C)[C@H]1CCNc2ccc(Cc3ccccc3)cc21 [Compound 1002]	0.8 ± 0.04 nM	7.2 ± 0.4 nM	8.3 ± 2.4%		2.2 ± 2.2%	4.1 ± 0.4 nM	8.5 ± 0.2 nM	0.463 ± 0.1 nM	65.6 ± 4.4%				
Cc1cc(O)cc(C)c1C[C@H](N)C(=O)N[C@@H]1CCN(C)c2ccc(Cc3ccccc3)cc21 [Compound 1004]	0.555 ± 0.242 nM	2220 ± 1020 nM	44 ± 8.2%	486 nM	4.3 ± 4.3%	27.8 ± 0.7 nM	7.3 ± 3.5 nM	4 ± 0.9 nM	102 ± 4.6%				
Cc1cc(O)cc(C)c1C[C@H](N)C(=O)N[C@H]1CCN(C)c2ccc(Cc3ccccc3)cc21 [Compound 1005]	71.4 ± 18.4 nM		1.6 ± 1.4%		0%	632 ± 78 nM	138 ± 29.8 nM	214 ± 41 nM	72.2 ± 3.6%				
CCCN1CC[C@@H](NC(=O)[C@@H](N)Cc2c(C)cc(O)cc2C)c2cc(Cc3ccccc3)ccc21 [Compound 1006]	0.34 ± 0.21 nM	5010 ± 1020 nM	38.2 ± 3.42%	2330 ± 1030 nM	39.3 ± 5.45%	71.7 ± 20 nM	1.72 ± 0.61 nM	16.4 ± 8.18 nM	83.1 ± 3.25%				
Cc1ccc(Cc2ccc3c(c2)[C@H](NC(=O)[C@@H](N)Cc2c(C)cc(O)cc2C)CCN3)cc1 [Compound 1007]	0.11 nM		14%		13%	18 nM	6.1 nM		99%				
Cc1ccc(Cc2ccc3c(c2)[C@@H](NC(=O)[C@@H](N)Cc2c(C)cc(O)cc2C)CCN3)cc1 [Compound 1008]	11 nM		0%		3%	50 nM	582 nM		55%				
Cc1cc(O)cc(C)c1C[C@H](N)C(=O)N[C@@H]1CCNc2ccc(Cc3ccc(F)cc3)cc21 [Compound 1009]	0.07 nM		9%		16%	6.6 nM	4 nM		69%				
CCCC(=O)N1CC[C@@H](NC(=O)[C@@H](N)Cc2c(C)cc(O)cc2C)c2cc(CC3Cc4ccccc4C3)ccc21 [Compound 1034]	0.13 ± 0.02 nM					25.5 ± 0.85 nM	0.38 ± 0.07 nM	4.08 ± 1.58 nM	63.2 ± 12.6%	dns	dns		
Cc1cc(O)cc(C)c1C[C@H](N)C(=O)N[C@@H]1CCNc2ccc(CC3Cc4cccc(O)c4C3)cc21 (stereo partly drawn) [Compound 1036, (2S)-2-amino-N-((4R)-6-((4-hydroxy-2,3-dihydro-1H-inden-2-yl)methyl)-1,2,3,4-tetrahydroquinolin-4-yl)-3-(4-hydroxy-2,6-dimethylphenyl)propanamide]	0.18 ± 0.03 nM					20.6 ± 16.3 nM	6.01 ± 1.31 nM	4.93 ± 1.15 nM	69.1 ± 5.74%	dns	dns		
Cc1cc(O)cc(C)c1C[C@H](N)C(=O)N[C@@H]1CCNc2ccc(CC3Cc4ccc(O)cc4C3)cc21 (stereo partly drawn) [Compound 1038]	0.73 nM			261 nM	10.5%	38.5 nM	19.9 ± 4.12 nM	11.9 ± 4.96 nM	16.2 ± 3.43%				
Cc1cc(O)cc(C)c1C[C@H](N)C(=O)N[C@@H]1CCNc2c(Cc3ccccc3)cccc21 [Compound 1039]	57.7 nM					977 nM	246 nM	988 nM	17.9%	dns	dns		
CC(=O)N1CC[C@@H](NC(=O)[C@@H](N)Cc2c(C)cc(O)cc2C)c2cc(Cc3ccccc3)cc(Cc3ccccc3)c21 [Compound 1042]	0.35 nM			14.2 nM	30.1%	12.1 nM	0.35 nM	14.7 nM	75.1%				
Cc1cc(O)cc(C)c1C[C@H](N)C(=O)N[C@@H]1CCNc2ccc(CC3Cc4ccccc4C3C)cc21 (stereo partly drawn) [Compound 1043]	0.43 ± 0.18 nM					35.7 ± 23.6 nM	12 ± 1.17 nM	3.21 ± 1.25 nM	92.4 ± 8.06%	dns	dns		
COC(=O)N1CC[C@@H](NC(=O)[C@@H](N)Cc2c(C)cc(O)cc2C)c2cc(CC3Cc4ccccc4C3)ccc21 [Compound 1044]	0.09 ± 0.02 nM					10.4 nM	0.26 ± 0.05 nM	0.4 nM	82.5%	dns	dns		
COc1cc2c(cc1Cc1ccccc1)[C@H](NC(=O)[C@@H](N)Cc1c(C)cc(O)cc1C)CCN2 [Compound 1045]	0.26 ± 0.09 nM			135 nM	32.5%	8.51 nM	2.84 ± 0.78 nM	8.03 ± 3.15 nM	98.4 ± 2.54%				
Cc1cc(O)cc(C)c1C[C@H](N)C(=O)N[C@@H]1CCNc2cc(O)c(Cc3ccccc3)cc21 [Compound 1046]	0.33 ± 0.14 nM			237 nM	20.3%	15.1 nM	2.74 ± 0.05 nM	9.86 ± 3.79 nM	94.7 ± 4.19%				
Cc1cc(O)cc(C)c1C[C@H](N)C(=O)N[C@@H]1CCNc2ccc(Cn3n[n+]([O-])c4ccc(Cl)cc43)cc21 [Compound 1047]	0.35 ± 0.05 nM					22.5 ± 8.83 nM	3.54 ± 0.83 nM	3.45 ± 0.67 nM	81.6 ± 1.48%	dns	dns		
CCCc1cc(Br)cc2c1NCC[C@H]2NC(=O)[C@@H](N)Cc1c(C)cc(O)cc1C [Compound 1058]	21.7 ± 8.06 nM					208 ± 16 nM	45.9 ± 22.6 nM	859 nM	12.6%			dns	dns
Cc1cc(O)cc(C)c1C[C@H](N)C(=O)N[C@@H]1CCNc2c(C(=O)Nc3ccccc3)cc(Cc3ccccc3)cc21 [Compound 1103]	0.36 nM					29.4 nM	2.17 nM	27.3 nM	62.7%	dns	dns		
Cc1cc(O)cc(C)c1C[C@H](N)C(=O)N[C@@H]1CCCc2ccc(Oc3ccccc3)cc21 [Compound 1118]	0.33 ± 0.09 nM				1.65 ± 1.65%	38.5 ± 5.39 nM	13 ± 1.01 nM	43 ± 14 nM	41.9 ± 8.97%				
